# Test results as given in US12215140B2, “Method of stabilizing protein contained in specimen and solution for stabilizing protein contained in specimen” (EIKEN KAGAKU KABUSHIKI KAISHA, priority 2018, dated 2025).
# Test system: hemoglobin-haptoglobin complex
# Assay: Stability of hemoglobin (as hemoglobin-haptoglobin complex) in samples preserved at 37° C. in preservation solution containing 1 unit/L haptoglobin, Hb measured by latex agglutination method (Examples 1 to 7)
# Set-up: species or system human
# Conditions: for Hb concentration / Recovery ratio with respect to Hb concentration after 0 days: 37° C.
# Method in brief: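 Hemoglobin (~300 µg/L) in 0.5% fecal suspension, or without feces, held at 37 °C for 0–21 days in 40 mmol/L HEPES pH 6.8, 0.1% BSA, 0.1% NaN3, 1 unit/L haptoglobin, with 0–100 mmol/L phenylboronic acid ± sugars. Hb quantified by latex agglutination with anti-human Hb rabbit polyclonal; recovery (%) relative to day 0.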
# [1] = Feces 1, sugar 50 mmol/L + phenylboronic acid 15 mmol/L, 0 days
# [2] = Feces 1, sugar 50 mmol/L + phenylboronic acid 15 mmol/L, 7 days
# [3] = Feces 1, sugar 50 mmol/L + phenylboronic acid 15 mmol/L, 14 days
# [4] = Feces 1, sugar 50 mmol/L + phenylboronic acid 15 mmol/L, 21 days
# [5] = Feces 1, sugar 100 mmol/L + phenylboronic acid 15 mmol/L, 0 days
# [6] = Feces 1, sugar 100 mmol/L + phenylboronic acid 15 mmol/L, 7 days
# [7] = Feces 1, sugar 100 mmol/L + phenylboronic acid 15 mmol/L, 14 days
# [8] = Feces 1, sugar 100 mmol/L + phenylboronic acid 15 mmol/L, 21 days
# [9] = Feces 1, sugar 100 mmol/L, no phenylboronic acid, 0 days
# [10] = Feces 1, sugar 100 mmol/L, no phenylboronic acid, 7 days
# [11] = Feces 1, sugar 100 mmol/L, no phenylboronic acid, 14 days
# [12] = Feces 1, sugar 100 mmol/L, no phenylboronic acid, 21 days
# [13] = Feces 2, sugar 50 mmol/L + phenylboronic acid 15 mmol/L, 0 days
# [14] = Feces 2, sugar 50 mmol/L + phenylboronic acid 15 mmol/L, 7 days
# [15] = Feces 2, sugar 50 mmol/L + phenylboronic acid 15 mmol/L, 14 days
# [16] = Feces 2, sugar 50 mmol/L + phenylboronic acid 15 mmol/L, 21 days
# [17] = Feces 2, sugar 100 mmol/L + phenylboronic acid 15 mmol/L, 0 days
# [18] = Feces 2, sugar 100 mmol/L + phenylboronic acid 15 mmol/L, 14 days
# [19] = Feces 2, sugar 100 mmol/L + phenylboronic acid 15 mmol/L, 21 days
# [20] = Feces 2, sugar 100 mmol/L, no phenylboronic acid, 0 days
# [21] = Feces 2, sugar 100 mmol/L, no phenylboronic acid, 7 days
# [22] = Feces 2, sugar 100 mmol/L, no phenylboronic acid, 14 days
# [23] = Feces 2, sugar 100 mmol/L, no phenylboronic acid, 21 days
# [24] = Feces 3, sugar 50 mmol/L + phenylboronic acid 15 mmol/L, 0 days
# [25] = Feces 3, sugar 50 mmol/L + phenylboronic acid 15 mmol/L, 7 days
# [26] = Feces 3, sugar 50 mmol/L + phenylboronic acid 15 mmol/L, 14 days
# [27] = Feces 3, sugar 50 mmol/L + phenylboronic acid 15 mmol/L, 21 days
# [28] = Feces 3, sugar 100 mmol/L + phenylboronic acid 15 mmol/L, 0 days
# [29] = Feces 3, sugar 100 mmol/L + phenylboronic acid 15 mmol/L, 7 days
# [30] = Feces 3, sugar 100 mmol/L + phenylboronic acid 15 mmol/L, 14 days
# [31] = Feces 3, sugar 100 mmol/L + phenylboronic acid 15 mmol/L, 21 days
# [32] = Feces 3, sugar 100 mmol/L, no phenylboronic acid, 0 days
# [33] = Feces 3, sugar 100 mmol/L, no phenylboronic acid, 7 days
# [34] = Feces 3, sugar 100 mmol/L, no phenylboronic acid, 14 days
# [35] = Feces 3, sugar 100 mmol/L, no phenylboronic acid, 21 days
# [36] = No feces, sugar 50 mmol/L + phenylboronic acid 15 mmol/L, 7 days
# [37] = No feces, sugar 50 mmol/L + phenylboronic acid 15 mmol/L, 14 days
# [38] = No feces, sugar 100 mmol/L + phenylboronic acid 15 mmol/L, 0 days
# [39] = No feces, sugar 100 mmol/L + phenylboronic acid 15 mmol/L, 7 days
# [40] = No feces, sugar 100 mmol/L + phenylboronic acid 15 mmol/L, 14 days
# [41] = No feces, sugar 100 mmol/L + phenylboronic acid 15 mmol/L, 21 days
# [42] = No feces, sugar 100 mmol/L, no phenylboronic acid, 7 days
# [43] = No feces, sugar 100 mmol/L, no phenylboronic acid, 14 days
# [44] = No feces, sugar 100 mmol/L, no phenylboronic acid, 21 days
smiles,measurement,setting,value
"OC[C@H]1O[C@@](CO)(O[C@H]2O[C@H](CO)[C@@H](O)[C@H](O)[C@H]2O)[C@@H](O)[C@@H]1O [Sucrose, sucrose]",Hb concentration,[1],291 µg/L
same,Recovery ratio with respect to Hb concentration after 0 days,[1],100%
same,Hb concentration,[2],281 µg/L
same,Recovery ratio with respect to Hb concentration after 0 days,[2],97%
same,Hb concentration,[3],274 µg/L
same,Recovery ratio with respect to Hb concentration after 0 days,[3],94%
same,Hb concentration,[4],268 µg/L
same,Recovery ratio with respect to Hb concentration after 0 days,[4],92%
same,Hb concentration,[5],286 µg/L
same,Recovery ratio with respect to Hb concentration after 0 days,[5],100%
same,Hb concentration,[6],272 µg/L
same,Recovery ratio with respect to Hb concentration after 0 days,[6],95%
same,Hb concentration,[7],270 µg/L
same,Recovery ratio with respect to Hb concentration after 0 days,[7],94%
same,Hb concentration,[8],258 µg/L
same,Recovery ratio with respect to Hb concentration after 0 days,[8],90%
same,Hb concentration,[9],264 µg/L
same,Recovery ratio with respect to Hb concentration after 0 days,[9],100%
same,Hb concentration,[10],115 µg/L
same,Recovery ratio with respect to Hb concentration after 0 days,[10],44%
same,Hb concentration,[11],70 µg/L
same,Recovery ratio with respect to Hb concentration after 0 days,[11],27%
same,Hb concentration,[12],80 µg/L
same,Recovery ratio with respect to Hb concentration after 0 days,[12],30%
same,Hb concentration,[13],273 µg/L
same,Recovery ratio with respect to Hb concentration after 0 days,[13],100%
same,Hb concentration,[14],266 µg/L
same,Recovery ratio with respect to Hb concentration after 0 days,[14],97%
same,Hb concentration,[15],232 µg/L
same,Recovery ratio with respect to Hb concentration after 0 days,[15],85%
same,Hb concentration,[16],212 µg/L
same,Recovery ratio with respect to Hb concentration after 0 days,[16],78%
same,Hb concentration,[17],267 µg/L
same,Recovery ratio with respect to Hb concentration after 0 days,[17],100%
same,Recovery ratio with respect to Hb concentration after 0 days,"Feces 2, sugar 100 mmol/L + phenylboronic acid 15 mmol/L, 7 days",96%
same,Hb concentration,[18],236 µg/L
same,Recovery ratio with respect to Hb concentration after 0 days,[18],88%
same,Hb concentration,[19],219 µg/L
same,Recovery ratio with respect to Hb concentration after 0 days,[19],82%
same,Hb concentration,[20],270 µg/L
same,Recovery ratio with respect to Hb concentration after 0 days,[20],100%
same,Hb concentration,[21],96 µg/L
same,Recovery ratio with respect to Hb concentration after 0 days,[21],36%
same,Hb concentration,[22],49 µg/L
same,Recovery ratio with respect to Hb concentration after 0 days,[22],18%
same,Hb concentration,[23],31 µg/L
same,Recovery ratio with respect to Hb concentration after 0 days,[23],11%
same,Hb concentration,[24],286 µg/L
same,Recovery ratio with respect to Hb concentration after 0 days,[24],100%
same,Hb concentration,[25],234 µg/L
same,Recovery ratio with respect to Hb concentration after 0 days,[25],82%
same,Hb concentration,[26],209 µg/L
same,Recovery ratio with respect to Hb concentration after 0 days,[26],73%
same,Hb concentration,[27],195 µg/L
same,Recovery ratio with respect to Hb concentration after 0 days,[27],68%
same,Hb concentration,[28],272 µg/L
same,Recovery ratio with respect to Hb concentration after 0 days,[28],100%
same,Hb concentration,[29],230 µg/L
same,Recovery ratio with respect to Hb concentration after 0 days,[29],85%
same,Hb concentration,[30],201 µg/L
same,Recovery ratio with respect to Hb concentration after 0 days,[30],74%
same,Hb concentration,[31],187 µg/L
same,Recovery ratio with respect to Hb concentration after 0 days,[31],69%
same,Hb concentration,[32],267 µg/L
same,Recovery ratio with respect to Hb concentration after 0 days,[32],100%
same,Hb concentration,[33],89 µg/L
same,Recovery ratio with respect to Hb concentration after 0 days,[33],33%
same,Hb concentration,[34],55 µg/L
same,Recovery ratio with respect to Hb concentration after 0 days,[34],21%
same,Hb concentration,[35],40 µg/L
same,Recovery ratio with respect to Hb concentration after 0 days,[35],15%
same,Recovery ratio with respect to Hb concentration after 0 days,"No feces, sugar 50 mmol/L + phenylboronic acid 15 mmol/L, 0 days",100%
same,Hb concentration,[36],253 µg/L
same,Recovery ratio with respect to Hb concentration after 0 days,[36],93%
same,Hb concentration,[37],246 µg/L
same,Recovery ratio with respect to Hb concentration after 0 days,[37],91%
same,Recovery ratio with respect to Hb concentration after 0 days,"No feces, sugar 50 mmol/L + phenylboronic acid 15 mmol/L, 21 days",95%
same,Hb concentration,[38],267 µg/L
same,Recovery ratio with respect to Hb concentration after 0 days,[38],100%
same,Hb concentration,[39],247 µg/L
same,Recovery ratio with respect to Hb concentration after 0 days,[39],93%
same,Hb concentration,[40],241 µg/L
same,Recovery ratio with respect to Hb concentration after 0 days,[40],90%
same,Hb concentration,[41],260 µg/L
same,Recovery ratio with respect to Hb concentration after 0 days,[41],97%
same,Recovery ratio with respect to Hb concentration after 0 days,"No feces, sugar 100 mmol/L, no phenylboronic acid, 0 days",100%
same,Hb concentration,[42],228 µg/L
same,Recovery ratio with respect to Hb concentration after 0 days,[42],93%
same,Hb concentration,[43],223 µg/L
same,Recovery ratio with respect to Hb concentration after 0 days,[43],91%
same,Hb concentration,[44],222 µg/L
same,Recovery ratio with respect to Hb concentration after 0 days,[44],91%
same,recovery ratio of hemoglobin in the sample,"sugar 100 mmol/L further added to other arylboronic acids (3-CPBA, 3-HPBA, 3-APBA) 15 mmol/L, Feces 1, Feces 2, Feces 3",further improved
same,recovery ratio of hemoglobin in the samples containing fecal specimens,"sugar 100 mmol/L, preservation solutions containing no phenylboronic acid",does not improve
same,recovery ratio of hemoglobin in the sample,"sugar 50 or 100 mmol/L further added to phenylboronic acid 15 mmol/L, Feces 1, Feces 2, Feces 3",further improved
same,recovery ratio of hemoglobin in the samples containing feces,"sugar added to phenylboronic acid 15 mmol/L, Feces 1, Feces 2, Feces 3",improved depending on the added concentration
